Assay results published in US11780823B2, “Indazole-3-carboxamides and their use as Wnt/β-catenin signaling pathway inhibitors” (BioSplice Therapeutics, Inc., priority 2011, dated 2023).

system: Wnt activity (wnt-responsive SP5 promoter luciferase reporter in SW480 cells); assay: Wnt reporter screening assay: SP5 promoter-driven firefly luciferase in SW480 cells; assay type: cell-based; settings: Homo sapiens; SW480 colon cancer cells with SP5 promoter luciferase reporter; half-log dilutions, ten micromolar top concentration; read 24-40 h after compound addition; normalized to DMSO; read-out: Wnt inhibition
Summary of the method: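 Described as a possible protocol: SW480 cells (APC-mutant colon cancer) stably carrying an SP5 promoter (eight TCF/LEF sites) firefly luciferase reporter, ~10,000 per well. BrightGlo luminescence normalized to DMSO wells for IC50.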

SMILES | IC50 [nM]
O=C(Nc1ccc(N2CCNCC2)nc1)c1n[nH]c2ccc(-c3cncc(CN4CCCCC4)c3)cc12 [Compound 177, N-(6-(Piperazin-1-yl)pyridin-3-yl)-5-(5-(piperidin-1-ylmethyl)pyridin-3-yl)-1H-indazole-3-carboxamide] | 183
O=C(Nc1ccc(O)nc1)c1n[nH]c2ccc(-c3cncc(CN4CCCCC4)c3)cc12 [Compound 178, N-(6-Hydroxypyridin-3-yl)-5-(5-(piperidin-1-ylmethyl)pyridin-3-yl)-1H-indazole-3-carboxamide] | 297
O=C(Nc1ccc(C(=O)N2CCCC2)nc1)c1n[nH]c2ccc(-c3cncc(CN4CCCCC4)c3)cc12 [Compound 179, 5-(5-(Piperidin-1-ylmethyl)pyridin-3-yl)-N-(6-(pyrrolidine-1-carbonyl)pyridin-3-yl)-1H-indazole-3-carboxamide] | 30
NC(=O)c1ccc(NC(=O)c2n[nH]c3ccc(-c4cncc(CN5CCCCC5)c4)cc23)cn1 [Compound 180, N-(6-carbamoylpyridin-3-yl)-5-(5-(piperidin-1-ylmethyl)pyridin-3-yl)-1H-indazole-3-carboxamide] | 13
O=C(NC1CCCC1)c1ccc(NC(=O)c2n[nH]c3ccc(-c4cccnc4)cc23)cn1 [Compound 181, N-(6-(Cyclopentylcarbamoyl)pyridin-3-yl)-5-(pyridin-3-yl)-1H-indazole-3-carboxamide] | 38
Nc1cncc(-c2ccc3[nH]nc(C(=O)Nc4ccc(N5CCCCC5)nc4)c3c2)c1 [Compound 182, 5-(5-Aminopyridin-3-yl)-N-(6-(piperidin-1-yl)pyridin-3-yl)-1H-indazole-3-carboxamide] | 35
O=C(Nc1ccc(N2CCCC2)nc1)c1n[nH]c2ccc(-c3cncc(CN4CCC(F)(F)C4)c3)cc12 [Compound 183, 5-(5-((3,3-Difluoropyrrolidin-1-yl)methyl)pyridin-3-yl)-N-(6-(pyrrolidin-1-yl)pyridin-3-yl)-1H-indazole-3-carboxamide] | 49
O=C(NC1CCCC1)c1ccc(NC(=O)c2n[nH]c3ccc(-c4cncc(CN5CCCCC5)c4)cc23)cn1 [Compound 184, N-(6-(Cyclopentylcarbamoyl)pyridin-3-yl)-5-(5-(piperidin-1-ylmethyl)pyridin-3-yl)-1H-indazole-3-carboxamide] | 40
CS(=O)(=O)c1ccc(NC(=O)c2n[nH]c3ccc(-c4cncc(CN5CCCCC5)c4)cc23)cn1 [Compound 185, N-(6-(Methylsulfonyl)pyridin-3-yl)-5-(5-(piperidin-1-ylmethyl)pyridin-3-yl)-1H-indazole-3-carboxamide] | 27
CN1CCN(c2cncc(-c3ccc4[nH]nc(C(=O)Nc5ccc(N6CCCC6)nc5)c4c3)c2)CC1 [Compound 186, 5-(5-(4-Methylpiperazin-1-yl)pyridin-3-yl)-N-(6-(pyrrolidin-1-yl)pyridin-3-yl)-1H-indazole-3-carboxamide] | 460
O=C(Nc1ccc(N2CCCC2)nc1)c1n[nH]c2ccc(-c3cncc(N4CCOCC4)c3)cc12 [Compound 187, 5-(5-Morpholinopyridin-3-yl)-N-(6-(pyrrolidin-1-yl)pyridin-3-yl)-1H-indazole-3-carboxamide] | 215
O=C(Nc1cccnc1)c1n[nH]c2ccc(-c3cncc(CN4CCC(F)(F)C4)c3)cc12 [Compound 188, 5-(5-((3,3-Difluoropyrrolidin-1-yl)methyl)pyridin-3-yl)-N-(pyridin-3-yl)-1H-indazole-3-carboxamide] | 9
O=C(Nc1cccnc1)c1n[nH]c2ccc(-c3cncc(N4CCCC4)c3)cc12 [Compound 189, N-(Pyridin-3-yl)-5-(5-(pyrrolidin-1-yl)pyridin-3-yl)-1H-indazole-3-carboxamide] | 85
CN(C)Cc1cncc(-c2ccc3[nH]nc(C(=O)Nc4ccc(N5CCCC5)nc4)c3c2)c1 [Compound 190, 5-(5-((Dimethylamino)methyl)pyridin-3-yl)-N-(6-(pyrrolidin-1-yl)pyridin-3-yl)-1H-indazole-3-carboxamide] | 1200
